ChEMBL document CHEMBL5143572, “Synthesis and evaluation of new potential anti-pseudo-allergic agents” (Bioorg Med Chem Lett, 2022)
The source made the active and inactive calls. No cut-off for these calls is given here.

Tests used:
LAD2 [1] = test: Cytotoxicity against human LAD2 cells at 0.1 to 100 uM measured after 24 hrs; format: toxicity, cell-based; details: lad2, 24 h, dose 0.1-100 µM
LAD2 [2] = test: Antiallergic activity in human LAD2 cells assessed as inhibition of C48/80-induced beta-hexosaminidase release; format: functional, cell-based; details: dose 0.1-100 µM
LAD2 [3] = test: Antiallergic activity in human LAD2 cells assessed as inhibition of C48/80-induced histamine release; format: functional, cell-based; details: dose 0.1-100 µM, DDE = dose-dependent effect
[4] = target: T1, Mas-related G-protein coupled receptor member X2 (Homo sapiens) (UniProt Q96LB1); test: Antagonist activity at MRGPRX2 (unknown origin) expressed in HEK293 cells assessed as inhibition of C48/80-induced Ca2+- mobilization; format: functional, cell-based; details: filed as antagonist, dose 0.1-100 µM, DDE = dose-dependent effect
T1 sequence (whole entry): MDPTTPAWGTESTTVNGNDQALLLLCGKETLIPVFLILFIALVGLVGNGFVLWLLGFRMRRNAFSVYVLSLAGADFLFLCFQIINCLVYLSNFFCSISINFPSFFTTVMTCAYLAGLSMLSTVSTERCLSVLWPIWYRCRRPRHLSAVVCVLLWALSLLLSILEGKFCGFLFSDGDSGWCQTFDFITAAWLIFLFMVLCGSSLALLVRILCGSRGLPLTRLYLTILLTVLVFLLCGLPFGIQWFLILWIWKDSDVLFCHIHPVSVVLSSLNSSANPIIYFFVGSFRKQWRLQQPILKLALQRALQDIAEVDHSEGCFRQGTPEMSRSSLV

inhibition [4] | Compound | Activity (LAD2 [1]) | inhibition (LAD2 [2]; DDE = dose-dependent effect) | inhibition (LAD2 [3]) | inhibition (LAD2 [2])
Dde | O=C(Nc1ccc(C(F)(F)F)cc1)Nc1nc(COc2ccc(CCCCn3ccnn3)cc2)co1 | Non-Toxic | Dde | Dde | 
 | O=C(Nc1ccc(Sc2ccc3c(=O)[nH]cnc3c2)cc1)Nc1ccc(Cl)c(C(F)(F)F)c1 |  |  |  | Active
Dde | O=C(Nc1ccc(Cl)c(C(F)(F)F)c1)Nc1nc(COc2ccc(CCCCn3ccnn3)cc2)co1 | Non-Toxic | Dde | Dde | 
 | FC(F)(F)c1ccc(/C=C/c2nc(COc3ccc(CCCCn4ccnn4)cc3)co2)cc1 |  |  |  | Active
